Reference: patent publication US12403184B2, “Compositions and methods for treating neurodegenerative disroders” (priority 2018, dated 2025)
Where no end group is shown, it is not given here.

Assays:
Drp1 = Drp1 mitochondrial level and Drp1 oligomerization in striatum of treated HD mice; type: in vivo, mouse; settings: for Drp1 translocation to the mitochondria: 1 mg/kg/day
Procedure: Cells were washed with cold phosphate-buffered saline (PBS) and incubated on ice in mitochondrial lysis buffer (250 mM sucrose, 20 mM HEPES-NaOH, pH 7.5, 10 mM KCl, 1.5 mM MgCl2, 1 mM EDTA, 1 mM EGTA, protease inhibitor cocktail, and phosphatase inhibitor cocktail) for 30 min. The cells were scraped and then disrupted 15 times by repeated aspiration through a 25-gauge needle. Mouse brains were minced and homogenized in mitochondrial lysis buffer to release mitochondria. The homogenates were spun at 800×g for 10 min at 4° C., and the resulting supernatants were spun at 12,000×g for 20 min at 4° C. The pellets were washed with lysis buffer and spun at 12,000×g again for 20 min at 4° C. The final pellets were suspended in lysis buffer containing 1% Triton X-100 and were mitochondrial-rich lysate fractions. The mitochondrial protein voltage-dependent anion channel (VDAC) was used as a loading control.
Protein concentration was measured by protein assay dye reagents (Bio-rad). The protein was resuspended in Laemmli buffer, loaded on SDS-PAGE, and transferred onto nitrocellulose membranes. Membranes were probed with the indicated antibodies, followed by visualization with ECL. Representative blots have been cropped for presentation.
Systemic peptide treatment in HD mice. All randomization and peptide treatments were prepared by an experimenter not associated with behavioral and neuropathology analysis. Male R6/2 mice (Tg) and their age-matched wild-type littermates (Wt) (6-week-old) were implanted with a 28-day osmotic pump (Alzet, Cupertino CA, Model 2004) containing TAT control peptide or DA1 peptide, which delivered peptides at a rate of 1 mg/kg/day. Male YAC128 mice (Tg) and their age-matched wild-type littermates (WT) were treated with TAT control peptide or DA1 peptide (1 mg/kg/day) by Alzet osmotic pump starting from the age of 3 months. The pump was replaced once every month.

Drp1/ATAD3A = target: T1, Drp1/ATAD3A (Mus musculus, UniProt Q925I1); experiment: Immunoprecipitation of Drp1/ATAD3A binding in mouse striatal cells; type: cell-based
T1 construct: The total lysates of cells or mouse striatum were subject to IP analysis; endogenous in cells; host or cells: HdhQ7 / HdhQ111 mouse striatal cells; wild-type mouse striatal cells exposed to 3-NP
T1 sequence (Q925I1 2-591 limits assumed): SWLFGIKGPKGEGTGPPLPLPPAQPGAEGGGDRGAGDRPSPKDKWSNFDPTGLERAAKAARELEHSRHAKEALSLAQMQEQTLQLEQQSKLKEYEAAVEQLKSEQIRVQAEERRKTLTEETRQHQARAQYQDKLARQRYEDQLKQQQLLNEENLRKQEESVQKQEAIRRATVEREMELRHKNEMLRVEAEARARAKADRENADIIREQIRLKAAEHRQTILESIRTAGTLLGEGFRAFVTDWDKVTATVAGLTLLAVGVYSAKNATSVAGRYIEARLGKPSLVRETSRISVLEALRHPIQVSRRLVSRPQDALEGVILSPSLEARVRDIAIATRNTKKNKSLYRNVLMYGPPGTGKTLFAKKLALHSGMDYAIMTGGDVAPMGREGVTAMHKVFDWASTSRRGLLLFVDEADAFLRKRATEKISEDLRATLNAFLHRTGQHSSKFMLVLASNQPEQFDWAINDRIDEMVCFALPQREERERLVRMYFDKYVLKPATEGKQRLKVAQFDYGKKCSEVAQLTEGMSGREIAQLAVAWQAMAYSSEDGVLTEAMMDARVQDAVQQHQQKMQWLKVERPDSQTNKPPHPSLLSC
Procedure: Cells and mouse brain tissues were harvested and lysed in total lysis buffer ([…], pH 7.9, […], […], 1% Triton X-100, and protease inhibitor cocktail) for 30 mins on ice and centrifuged at 12,000×g for 10 min at 4° C. The supernatants were incubated with the indicated primary antibodies or control IgG (sc-2025 and sc-2027, Santa Cruz Biotechnology) overnight at 4° C., followed by incubation with protein A/G beads (sc-2003, Santa Cruz Biotechnology) for 2 h at 4° C. The immunoprecipitates were washed with lysis buffer three times for a total of 30 min and then subject to WB analysis.

GST-Drp1 and ATAD3A-Flag = target: T2, GST-Drp1 and ATAD3A-Flag (Homo sapiens, UniProt Q9NVI7); experiment: GST pulldown assay, in vitro binding of GST-Drp1 and ATAD3A-Flag; settings: GST pull down, peptide 60 μM
T2 construct: Abnova for GST-Drp1 L1170 (TNT kit); no catalogue number printed for GST-Drp1; host or cells: cell-free coupled transcription/translation (ATAD3A-Flag); GST-Drp1 purchased
T2 sequence (Q9NVI7 1-586): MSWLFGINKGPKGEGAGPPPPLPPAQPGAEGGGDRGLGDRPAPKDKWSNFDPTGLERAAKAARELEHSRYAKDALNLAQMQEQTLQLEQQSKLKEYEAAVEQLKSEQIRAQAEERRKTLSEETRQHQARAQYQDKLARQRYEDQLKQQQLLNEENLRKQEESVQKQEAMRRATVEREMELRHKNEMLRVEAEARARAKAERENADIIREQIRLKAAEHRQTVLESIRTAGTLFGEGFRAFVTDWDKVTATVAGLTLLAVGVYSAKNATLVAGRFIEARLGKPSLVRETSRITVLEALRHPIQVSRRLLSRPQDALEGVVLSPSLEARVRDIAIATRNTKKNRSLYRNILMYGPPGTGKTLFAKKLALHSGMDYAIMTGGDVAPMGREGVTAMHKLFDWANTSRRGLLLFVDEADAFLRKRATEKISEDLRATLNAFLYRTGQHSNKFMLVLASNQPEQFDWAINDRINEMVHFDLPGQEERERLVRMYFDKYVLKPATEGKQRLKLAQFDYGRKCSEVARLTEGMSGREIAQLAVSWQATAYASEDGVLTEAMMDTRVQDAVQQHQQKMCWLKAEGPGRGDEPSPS
Description: Using pcDNA3.1 (+)-ATAD3A-Flag plasmid as template, ATAD3A-Flag protein was synthesized by TNT® Quick Coupled Transcription/Translation System (Promega, Cat #L1170) followed by protein purification with Flag-peptide (Sigma, F3290). The expression of ATAD3A protein was confirmed by western blot analysis with both anti-ATAD3A and anti-Flag antibodies. This approach provides convenient single-tube, coupled transcription/translation reactions for eukaryotic cell-free protein expression and has been used to detect direct protein-protein interaction.
GST-Drp1 or GST control protein were incubated with Glutathione-beads in TBST buffer at r.t. After 1 h of incubation, ATAD3A-Flag protein was added, and thoroughly mixed in vibrating mixer for 30 mins at r.t., then transferred to 4° C. for overnight incubation Immunoprecipitates were then washed for three time and analyzed by SDS-PAGE.
To test the inhibitory function of DA1 peptide on in vitro binding between GST-Drp1 and ATAD3A-Flag, DA1 peptide or control peptide TAT (60 μM, each) was incubated with ATAD3A-Flag protein before mixing with GST-Drp1-glutathione beads complex.

## YGRKKRRQRRRGGEDKRKT-NH2 [DA1, YGRKKRRQRRR-GG-EDKRKT-NH2]
Drp1; striatum of HD R6/2 mice
  Drp1 translocation to the mitochondria: abrogated
Drp1; striatum of HD R6/2 mice, 12 weeks old
  Drp1 polymerization: abrogated
Drp1; striatum of HD YAC128 mice
  Drp1 translocation to the mitochondria: abrogated
Drp1; striatum of HD YAC128 mice, 12 months old
  Drp1 polymerization: abrogated
Drp1/ATAD3A; HdhQ111 cells, peptide 1 μM/day for 4 days, vs TAT
  binding of Drp1/ATAD3A: significantly reduced
Drp1/ATAD3A; wildtype mouse striatal cells exposed to 3-NP (5 mM for 4 hours), DA1 1 μM overnight
  binding of Drp1/ATAD3A: significantly reduced
GST-Drp1 and ATAD3A-Flag
  binding of GST-Drp1 and ATAD3A-Flag in vitro: abolished
